Measurements: BindingDB's records for doi:10.1021/jm000541z (Abbott Laboratories, 2001)

Biological target: Alpha-1B adrenergic receptor (Mesocricetus auratus) (UniProt P18841)
Test: Binding affinity to hamster alpha-1B adrenergic receptor

Chain of Alpha-1B adrenergic receptor (Mesocricetus auratus) (P18841 whole entry, looked up): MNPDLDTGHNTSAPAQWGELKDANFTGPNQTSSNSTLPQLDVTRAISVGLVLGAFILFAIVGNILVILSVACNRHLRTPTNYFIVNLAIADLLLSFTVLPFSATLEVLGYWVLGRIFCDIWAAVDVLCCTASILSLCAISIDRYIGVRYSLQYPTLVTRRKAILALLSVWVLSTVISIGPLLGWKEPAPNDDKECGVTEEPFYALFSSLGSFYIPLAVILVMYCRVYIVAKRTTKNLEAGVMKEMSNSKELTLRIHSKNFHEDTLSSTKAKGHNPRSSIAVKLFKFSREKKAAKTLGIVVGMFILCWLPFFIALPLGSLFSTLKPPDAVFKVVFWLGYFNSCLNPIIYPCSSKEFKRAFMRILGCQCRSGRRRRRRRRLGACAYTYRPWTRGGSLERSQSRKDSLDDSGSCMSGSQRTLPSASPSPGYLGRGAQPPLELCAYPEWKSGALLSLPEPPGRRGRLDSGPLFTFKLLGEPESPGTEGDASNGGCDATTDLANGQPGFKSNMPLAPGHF

Ki	Compound
1010 pM	COc1cccc2c1CC[C@H]1CN(CCn3c(=O)[nH]c4cscc4c3=O)C[C@@H]21 [3-[2-(6-Methoxy-1,3,3a,4,5,9b-hexahydro-benzo[e]isoindol-2-yl)-ethyl]-1H-thieno[3,4-d]pyrimidine-2,4-dione]
920 pM	COc1cccc2c1CC[C@H]1CN(CCn3c(=O)[nH]c4cccc(Cl)c4c3=O)C[C@@H]21 [5-Chloro-3-[2-(6-methoxy-1,3,3a,4,5,9b-hexahydro-benzo[e]isoindol-2-yl)-ethyl]-1H-quinazoline-2,4-dione]
